How the values were obtained:
IL-1-beta = assay: LPS-induced IL-1-beta production in RAW cells (ELISA); type: cell-based; settings: RAW cells, 0.1, 1, 10, 50 or 100 pM, FIG. 11
DBA/1 Lac mice = assay: Collagen-induced arthritis in mice; type: in vivo; settings: 50 mg/kg orally daily for 17 days
PPAR-gamma = molecular target: T1, PPAR-gamma (Homo sapiens, UniProt P37231); assay: Preliminary PPAR-gamma competition binding assays; settings: data not shown
T1 sequence (P37231 1-505): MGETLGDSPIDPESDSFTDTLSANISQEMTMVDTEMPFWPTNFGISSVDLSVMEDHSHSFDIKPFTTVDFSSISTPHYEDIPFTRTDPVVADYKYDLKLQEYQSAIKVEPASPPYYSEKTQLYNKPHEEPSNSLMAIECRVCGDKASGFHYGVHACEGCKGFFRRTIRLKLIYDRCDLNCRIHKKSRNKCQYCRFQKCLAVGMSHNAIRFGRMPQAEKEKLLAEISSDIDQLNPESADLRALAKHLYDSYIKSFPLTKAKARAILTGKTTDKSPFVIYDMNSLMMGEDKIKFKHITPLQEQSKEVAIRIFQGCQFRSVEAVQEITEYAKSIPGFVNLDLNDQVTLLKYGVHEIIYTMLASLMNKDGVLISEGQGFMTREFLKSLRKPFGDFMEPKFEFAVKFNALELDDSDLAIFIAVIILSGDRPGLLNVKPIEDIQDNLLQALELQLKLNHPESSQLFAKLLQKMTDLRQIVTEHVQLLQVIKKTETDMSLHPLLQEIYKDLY

COC(=O)C(=Cc1cc(OC)cc(OC)c1)c1ccc(Oc2ccc(CC3SC(=O)NC3=O)cc2)cc1 (stereo not drawn) [Compound 11, 3-(3,5-Dimethoxyphenyl)-2-{4-[4-(2,4-dioxothiazolidin-5-ylmethyl)-phenoxy]-phenyl}-acrylic acid methyl ester]
blood glucose level (db/db mice; db/db male mice, oral 50 mg/kg, 15 days, FIG. 1A): substantial reduction
decrease in blood glucose levels (db/db mice; db/db mice, 50 mg/kg oral once daily, 8 to 9 days, FIG. 21): 32 % vs. baseline
blood glucose lowering effect (db/db mice; db/db mice, 50 mg/kg/day orally, 14 days, FIG. 16A): dramatic, comparable blood glucose lowering effects
drop in triglyceride levels (db/db mice; db/db mice, after 15 days of treatment, FIG. 5A): 24%
drop in FFA levels (db/db mice; db/db mice, after 15 days of treatment, FIG. 5B): 34%
drop in the GHb level (db/db mice; db/db mice, after 15 days of treatment, FIG. 5C): 0.7%
increase in the serum leptin level compared to the control group (db/db mice; db/db mice, after 15 days of treatment, FIG. 5D): 23 °/a
glucose lowering effect, maximal at 24 hrs (db/db mice; db/db mice, single oral dose 50 mg/kg, at 24 hrs): 23 % of 0 min
duration of effect on blood glucose (db/db mice; db/db mice, single oral dose, FIG. 4): ≥ 24 h
inhibition of LPS-induced IL-1-beta production (IL-1-beta): inhibited IL-1-beta better than rosiglitazone
body weight vs vehicle group (DBA/1 Lac mice; FIG. 13A): no change
clinical scores vs vehicle treated group (DBA/1 Lac mice; FIG. 13B): significantly lower
joints affected vs vehicle treated group (DBA/1 Lac mice; FIG. 13C): significantly lower
paw thickness vs vehicle treated group (DBA/1 Lac mice; FIG. 13D): significantly lower
affinity (Ki) of PPAR-gamma, less than for rosiglitazone (PPAR-gamma): 6.5 fold

— patent US20060235062A1, “Novel heterocyclic analogs of diphenylethylene compounds” (THERACOS, INC., priority 2002, published 2006)
